Results taken from patent publication US20040219220A1, “Therapeutic agents” (priority 2001, published 2004).

How the values were obtained:
[1] = Extruder temperature/throughput matrix: ibuprofen content and degradation products after melt extrusion (Example 25); assay type: physicochemical; conditions: 95 C to 130 C, 102 kg/hour to 216 kg/hour
Procedure: Further trials using the method of Example 1 but under process conditions as shown in Table 3 were conducted to determine the maximum output from the extruder by varying barrel temperature and powder feed rates, as shown in Table IIA.10.
Once the required extruder barrel temperature had been reached, the extruder was started and allowed to run for 15 minutes in order to equilibrate prior to sample collection.
Samples were collected for analysis to determine the level of degradation products formed.

[2] = Extruder barrel temperature profile: ibuprofen content and degradation products after melt extrusion (Example 24); assay type: physicochemical; conditions: up to a maximum extruder setting of 140 C
Procedure: The method set out in Example 1 was used. The extruder screw speed was set to a constant 600 rpm. The powder feed rate was also set to a constant value. to give a constant feed rate of powder into the extruder. The product of each trial was analysed to determine the level of the two major ibuprofen degradation products: 2-(4-isobutyrylphenyl) propionic acid (BTS 47711) and 4-isobutylacetophenone (BTS 40655).

**Q.** With `CC(C)Cc1ccc(C(C)C(=O)O)cc1` (racemic) [ibuprofen] as the molecule, how does the “degradation of ibuprofen over extruder barrel temperatures and throughputs” value [1] read?
**A.** no evidence of degradation

**Q.** And the “ibuprofen degradation as a result of the melt extrusion process” value [2]?
**A.** no evidence of ibuprofen degradation
